Reference: publication PMC4509728, “Crystal Structures Reveal that the Reaction Mechanism of Imidazoleglycerol-Phosphate Dehydratase Is Controlled by Switching Mn(II) Coordination” (Structure(London, England:1993), 2015)

Biological target: T1, IGPD2 (construct B) (Arabidopsis thaliana, UniProt O23346, E73Q)
T1 construct: gene HISN5B; construct B, residues 69-272, signal peptide removed and further N-terminal truncation; pET24a, E. coli BL21(DE3); homo 24mer, site formed by three chains
T1 sequence (O23346 69-272 E73Q): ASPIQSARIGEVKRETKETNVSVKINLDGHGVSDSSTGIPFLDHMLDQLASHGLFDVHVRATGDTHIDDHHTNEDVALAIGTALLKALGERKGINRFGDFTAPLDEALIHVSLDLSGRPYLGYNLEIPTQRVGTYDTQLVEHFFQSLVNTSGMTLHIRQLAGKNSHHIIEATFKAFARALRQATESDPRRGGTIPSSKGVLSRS
Test: X-ray crystallography of the co-crystal ([…] Å form A)
Assay type: binding
Settings: inactive mutant, Mn(II), mixed occupancy with 2R3S IGP at the same site

O=P(O)(O)OC[C@H](O)[C@@H](O)c1cnc[nH]1 [2S3S diastereoisomer of IGP]
X-ray crystallography of the co-crystal (1.12 Å form A): Both diastereoisomers bind at the same site
